Test results published in patent US9187480B2, “Peripherally restricted diphenyl purine derivatives” (RESEARCH TRIANGLE INSTITUTE, priority 2012, dated 2015).

Each compound was assayed against CB2 (Homo sapiens (Human), UniProt P34972) (assay: Displacement of [3H]CP55940 in membranes of CHO-K1 cells over-expressing CB2). Conditions: radioligand [3H]CP55940, CHO-K1 membranes; read-out: Ki (nM) v. [3H]CP55940 at CB2.
Type: binding
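Throughout, for Binding Selectivity using CP55940 Displacement: reported values are averages of 3-6 independent measurements.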

CB2, sequence (P34972 whole entry): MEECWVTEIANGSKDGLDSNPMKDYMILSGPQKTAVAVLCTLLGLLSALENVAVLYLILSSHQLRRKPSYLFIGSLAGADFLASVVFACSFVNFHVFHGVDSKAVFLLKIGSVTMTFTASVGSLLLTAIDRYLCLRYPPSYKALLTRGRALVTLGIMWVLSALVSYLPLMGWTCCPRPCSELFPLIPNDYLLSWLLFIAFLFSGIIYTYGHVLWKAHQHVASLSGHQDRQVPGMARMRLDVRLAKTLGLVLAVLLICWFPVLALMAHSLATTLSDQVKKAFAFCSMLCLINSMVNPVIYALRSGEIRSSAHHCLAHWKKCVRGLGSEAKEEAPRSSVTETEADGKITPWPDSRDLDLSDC

Structure (SMILES)	Ki
CC(C)(C)OC(=O)N1CCC(Nc2ncnc3c2nc(-c2ccccc2Cl)n3-c2ccc(Cl)cc2)CC1	13600 nM
CC(C)CC(=O)NC1CCN(c2ncnc3c2nc(-c2ccccc2Cl)n3-c2ccc(Cl)cc2)CC1	89.5 nM
NC1(c2ccccc2)CCN(c2ncnc3c2nc(-c2ccccc2Cl)n3-c2ccc(Cl)cc2)CC1	1660 nM
O=C(CC1CCCC1)NC1CCN(c2ncnc3c2nc(-c2ccccc2Cl)n3-c2ccc(Cl)cc2)CC1	569 nM
O=C(CC1CCCCC1)NC1CCN(c2ncnc3c2nc(-c2ccccc2Cl)n3-c2ccc(Cl)cc2)CC1	2360 nM
CC(C)(C)NC(=O)NC1(c2ccccc2)CCN(c2ncnc3c2nc(-c2ccccc2Cl)n3-c2ccc(Cl)cc2)CC1	20000 nM
CCCCC(=O)NC1CCN(c2ncnc3c2nc(-c2ccccc2Cl)n3-c2ccc(Cl)cc2)CC1 [drawing 78]	1050 nM
O=C(NC1CCN(c2ncnc3c2nc(-c2ccccc2Cl)n3-c2ccc(Cl)cc2)CC1)c1ccccc1	10600 nM
CC(C)(C)NC(=O)C1(c2ccccc2)CCN(c2ncnc3c2nc(-c2ccccc2Cl)n3-c2ccc(Cl)cc2)CC1	20000 nM
O=S(=O)(NC1CCN(c2ncnc3c2nc(-c2ccccc2Cl)n3-c2ccc(Cl)cc2)CC1)C(F)(F)F	4500 nM
CC(=O)NC1(c2ccccc2)CCN(c2ncnc3c2nc(-c2ccccc2Cl)n3-c2ccc(Cl)cc2)CC1	726 nM

What follows are compounds tested against T1, CB1 (Homo sapiens (Human), UniProt P21554) (assay: Displacement of [3H]CP55940 in membranes of CHO-K1 cells over-expressing CB1). Conditions: CB1 versus CB2.
T1 sequence (P21554 whole entry): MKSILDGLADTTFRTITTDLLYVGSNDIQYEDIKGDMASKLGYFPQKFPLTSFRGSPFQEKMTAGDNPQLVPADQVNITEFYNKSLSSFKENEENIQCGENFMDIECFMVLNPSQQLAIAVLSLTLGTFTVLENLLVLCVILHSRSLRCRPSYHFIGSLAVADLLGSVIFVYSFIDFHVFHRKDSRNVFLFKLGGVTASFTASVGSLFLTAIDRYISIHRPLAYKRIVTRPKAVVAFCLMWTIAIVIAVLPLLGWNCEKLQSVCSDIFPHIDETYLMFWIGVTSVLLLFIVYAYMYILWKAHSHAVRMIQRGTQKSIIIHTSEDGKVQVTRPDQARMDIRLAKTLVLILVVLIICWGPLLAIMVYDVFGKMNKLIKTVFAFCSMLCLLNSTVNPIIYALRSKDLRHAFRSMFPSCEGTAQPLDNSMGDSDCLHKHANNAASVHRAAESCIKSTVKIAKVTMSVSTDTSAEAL
Procedure: Further characterization of select compounds was performed using radioligand displacement of [3H]1 and equilibrium dissociation constant (Ki) values were determined. Selectivity of these compounds at CB1 versus CB2 was also determined by obtaining Ki values at either receptor using displacement of [3H]CP55940 in membranes of CHO-K1 cells over-expressing either receptor. Data reported are average values from 3-6 measurements.
Selectivity against the CB2 receptor was determined by comparing the compound displacement of radiolabeled CP55940, which is a cannabinoid known to act as a full agonist at both CB1 and CB2 receptors.

Structure (SMILES)	Binding Selectivity using CP55940 Displacement
CC(C)(C)OC(=O)N1CCC(Nc2ncnc3c2nc(-c2ccccc2Cl)n3-c2ccc(Cl)cc2)CC1	568.8
CC(C)CC(=O)NC1CCN(c2ncnc3c2nc(-c2ccccc2Cl)n3-c2ccc(Cl)cc2)CC1	22
NC1(c2ccccc2)CCN(c2ncnc3c2nc(-c2ccccc2Cl)n3-c2ccc(Cl)cc2)CC1	151
O=C(CC1CCCC1)NC1CCN(c2ncnc3c2nc(-c2ccccc2Cl)n3-c2ccc(Cl)cc2)CC1	282
CC(C)(C)NC(=O)NC1(c2ccccc2)CCN(c2ncnc3c2nc(-c2ccccc2Cl)n3-c2ccc(Cl)cc2)CC1	784
CCCCC(=O)NC1CCN(c2ncnc3c2nc(-c2ccccc2Cl)n3-c2ccc(Cl)cc2)CC1 [drawing 78]	54
CC(C)(C)NC(=O)C1(c2ccccc2)CCN(c2ncnc3c2nc(-c2ccccc2Cl)n3-c2ccc(Cl)cc2)CC1	4902
O=S(=O)(NC1CCN(c2ncnc3c2nc(-c2ccccc2Cl)n3-c2ccc(Cl)cc2)CC1)C(F)(F)F	738
CC(=O)NC1(c2ccccc2)CCN(c2ncnc3c2nc(-c2ccccc2Cl)n3-c2ccc(Cl)cc2)CC1	121

Same assay, conditions: read-out: Ki (nM) v. [3H]CP55940 at CB1; radioligand [3H]CP55940, CHO-K1 membranes

Structure (SMILES)	Ki
CC(C)(C)OC(=O)N1CCC(Nc2ncnc3c2nc(-c2ccccc2Cl)n3-c2ccc(Cl)cc2)CC1	23.9 nM
CC(C)CC(=O)NC1CCN(c2ncnc3c2nc(-c2ccccc2Cl)n3-c2ccc(Cl)cc2)CC1	4.01 nM
NC1(c2ccccc2)CCN(c2ncnc3c2nc(-c2ccccc2Cl)n3-c2ccc(Cl)cc2)CC1	11 nM
O=C(CC1CCCC1)NC1CCN(c2ncnc3c2nc(-c2ccccc2Cl)n3-c2ccc(Cl)cc2)CC1	2.02 nM
O=C(CC1CCCCC1)NC1CCN(c2ncnc3c2nc(-c2ccccc2Cl)n3-c2ccc(Cl)cc2)CC1	1.93 nM
CC(C)(C)NC(=O)NC1(c2ccccc2)CCN(c2ncnc3c2nc(-c2ccccc2Cl)n3-c2ccc(Cl)cc2)CC1	25.5 nM
CCCCC(=O)NC1CCN(c2ncnc3c2nc(-c2ccccc2Cl)n3-c2ccc(Cl)cc2)CC1 [drawing 78]	19.5 nM
CC(C)(C)NC(=O)C1(c2ccccc2)CCN(c2ncnc3c2nc(-c2ccccc2Cl)n3-c2ccc(Cl)cc2)CC1	4.08 nM
O=S(=O)(NC1CCN(c2ncnc3c2nc(-c2ccccc2Cl)n3-c2ccc(Cl)cc2)CC1)C(F)(F)F	6.1 nM
CC(=O)NC1(c2ccccc2)CCN(c2ncnc3c2nc(-c2ccccc2Cl)n3-c2ccc(Cl)cc2)CC1	6 nM

The compounds below were run on MDCK-MDR (assay: MDCK-MDR transport (apical to basal)). Conditions: not given.
Type: in vitro ADME

Structure (SMILES)	% MDCK-MDR transport (Apical to Basal)
NC1(c2ccccc2)CCN(c2ncnc3c2nc(-c2ccccc2Cl)n3-c2ccc(Cl)cc2)CC1	<1%
CC(C)(C)NC(=O)NC1(c2ccccc2)CCN(c2ncnc3c2nc(-c2ccccc2Cl)n3-c2ccc(Cl)cc2)CC1	<1%
CC(C)(C)NC(=O)C1(c2ccccc2)CCN(c2ncnc3c2nc(-c2ccccc2Cl)n3-c2ccc(Cl)cc2)CC1	<1%
CC(=O)NC1(c2ccccc2)CCN(c2ncnc3c2nc(-c2ccccc2Cl)n3-c2ccc(Cl)cc2)CC1	6%

What follows are compounds tested against T1, CB1 (assay: CB1 activated Gαq16-coupled intracellular calcium mobilization assay in CHO-K1 cells). Conditions: apparent affinity (Ke).
Type: cell-based

Structure (SMILES)	Ke (nM) at CB1
CC(C)(C)OC(=O)N1CCC(Nc2ncnc3c2nc(-c2ccccc2Cl)n3-c2ccc(Cl)cc2)CC1	92 nM
CC(C)CC(=O)NC1CCN(c2ncnc3c2nc(-c2ccccc2Cl)n3-c2ccc(Cl)cc2)CC1	5.4 nM
NC1(c2ccccc2)CCN(c2ncnc3c2nc(-c2ccccc2Cl)n3-c2ccc(Cl)cc2)CC1	15.89 nM
O=C(CC1CCCC1)NC1CCN(c2ncnc3c2nc(-c2ccccc2Cl)n3-c2ccc(Cl)cc2)CC1	2.9 nM
O=C(CC1CCCCC1)NC1CCN(c2ncnc3c2nc(-c2ccccc2Cl)n3-c2ccc(Cl)cc2)CC1	2.1 nM
CC(C)(C)NC(=O)NC1(c2ccccc2)CCN(c2ncnc3c2nc(-c2ccccc2Cl)n3-c2ccc(Cl)cc2)CC1	19.17 nM
CCCCC(=O)NC1CCN(c2ncnc3c2nc(-c2ccccc2Cl)n3-c2ccc(Cl)cc2)CC1 [drawing 78]	4.9 nM
CC(C)(C)NC(=O)C1(c2ccccc2)CCN(c2ncnc3c2nc(-c2ccccc2Cl)n3-c2ccc(Cl)cc2)CC1	2.2 nM
O=S(=O)(NC1CCN(c2ncnc3c2nc(-c2ccccc2Cl)n3-c2ccc(Cl)cc2)CC1)C(F)(F)F	1.05 nM
CC(=O)NC1(c2ccccc2)CCN(c2ncnc3c2nc(-c2ccccc2Cl)n3-c2ccc(Cl)cc2)CC1	10.31 nM
